Results on 32 compounds are retold here after US20230183179A1, “NOVEL CELL METABOLISM MODULATING COMPOUNDS AND USES THEREOF” (CRESCENTA BIOSCIENCES, priority 2020, published 2023).

Test [1] relates to differentiated 3T3-L1 mouse adipocyte cells. Briefly: Adipocyte glucose consumption in differentiated 3T3-L1 cells (colorimetric glucose assay of the medium). Particulars: 3T3-L1, 24 h, compound 10 μM, loss of glucose from culture medium, mean fold change (compound/DMSO). The format is cell-based. As to the method: Activity of compounds on adipocyte glucose consumption was tested in differentiated 3T3-L1 mouse adipocyte cells. 3T3-L1 preadipocytes (ATCC) were routinely cultured in a growth medium composed of DMEM high-glucose (Sigma), 10% FBS (Gibco), 10 U/ml penicillin and 10 μg/ml streptomycin (P/S; Gibco). To induce adipogenic differentiation, a confluent layer of 3T3-L1 cells were incubated with the growth medium containing 2 μM rosiglitazone, 1 μM dexamethasone, 500 μM IBMX, and 1 μg/ml insulin (Sigma). Forty-eight (48) hours later (on day 2) and on days 4 and 6, medium of the cells was replaced with fresh medium containing 1 μg/ml insulin. On days 8 and 10, the medium was refreshed with regular growth medium and addition of insulin was omitted. On day 11, medium of the cells were 10 replaced with fresh medium containing either the indicated compounds (10 μM) or the vehicle in which the compounds were dissolved (DMSO). The final concentration of DMSO was 0.1% (v/v). Growth medium containing 0.1% DMSO was incubated in culture wells containing no cells and used as control. 24 hours later, medium was harvested and subjected to centrifugation at 10,000 g for 5 min. Glucose concentration in the supernatants was determined using a 15 colorimetric assay (Glucose Assay Kit I, Eton Biosciences). Glucose consumption in compound and vehicle treated cells was measured as loss of glucose from the culture medium and represented as mean fold change (compound/DMSO)±standard deviation (SD).

Test [2] addresses T1, His6 tagged human recombinant FABP4 (Homo sapiens, UniProt P15090).
T1 construct: purchased Cayman Chemicals 10009549
Briefly: FABP4 TR-FRET assay: displacement of fluorescent fatty acid BODIPY FL C12. Particulars: inhibition of BODIPY FL C12 binding to His6-FABP4; 1.2 μL of 1.085 mM compound in DMSO per well; triplicates, mean percent inhibition. An excerpt:
Activity of compounds with FABP4 was profiled using a Terbium (Tb) based time resolved fluorescence energy transfer (TR-FRET) assay. The assay measures the compound mediated displacement of the fluorescent fatty acid BODIPY FL C12 (Thermo Fisher; catalog number D3822) from His6 tagged human recombinant FABP4 (His6-FABP4; Cayman Chemicals, catalog number 10009549) via recording the energy transfer from TB donor molecule on anti-His6-tag antibody to acceptor BODIPY moiety. Briefly, compounds and BODIPY FL C12 were prepared at a concentration of 1.085 mM and 4.2 μM, respectively, in DMSO. 1.2 μL of each compound or DMSO (vehicle control) and 1.2 μL of BODIPY FL C12 were added into the wells of a 384-well black polypropylene plate. His6-FABP4 and Tb anti-His6 antibody were prepared in the assay buffer (25 mM Tris/HCl, pH 7.4, 0.4 mg/ml γ-globulins, 0.010% NP-40, 1 mM DTT) at a concentration of 83 nM and 49.6 nM, respectively. The protein and antibody solutions were then mixed at a ratio of 34:7 (v/v) and incubated on ice for 30 minutes. The assay was initiated by adding 41 μL of the resulting protein/antibody solution into the wells containing the compounds and BODIPY FL C12. The plate was centrifuged and incubated at room temperature for 10 min. The TR-FRET signals were recorded using an EnVision Multilabel plate reader (PerkinElmer; TB excitation 320 nm, BODIPY FL C12 emission 520 nm; TB emission 615 nm). Relative fluorescence ratio (520 nm*10,000/615 nm) were used to calculate the compound mediated inhibition of BODIPY C12 FL fatty acid binding to FABP4. The compounds were tested in triplicates and the results were represented as mean percent inhibition (compound*100/DMSO)±standard deviation (SD). Glucose consumption and FABP4 inhibition is shown below in Table 3 below. The compounds showing no inhibition of activity in the TR-FRET assay are marked as N.A. N.D. stands for “not determined”.
In general terms: TR-FRET usually uses a lanthanide donor and a delayed reading to cut background.

T1 sequence (P15090 whole entry): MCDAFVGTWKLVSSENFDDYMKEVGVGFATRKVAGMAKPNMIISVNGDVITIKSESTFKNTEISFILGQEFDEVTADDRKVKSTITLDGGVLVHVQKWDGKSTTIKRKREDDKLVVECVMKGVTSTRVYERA

Take `CCCCCCc1ccc2nc(N(C)CC(=O)O)cc(-c3cccc(C)c3)c2c1` [2-{[6-hexyl-4-(3-methylphenyl)quinolin-2-yl](methyl)amino}acetic acid]: the fold induction (in general, the signal under treatment as a multiple of the control signal) at 10 µM in test [1] was 1.11.
On the same count and under the same terms, the same measure for `CCCCCCc1ccc2nc(N(C)CC(=O)O)cc(-c3cccc(C#N)c3)c2c1` [2-{[4-(3-cyanophenyl)-6-hexylquinolin-2-yl](methyl)amino}acetic acid]: 1.26.
Turning to `CCN(CC)CCc1ccc2nc(N(C)CC(=O)O)cc(-c3ccccc3)c2c1` [2-({6-[2-(diethylamino)ethyl]-4-phenylquinolin-2-yl}(methyl)amino)acetic acid], the inhibition (usually the relative decrease from the control value, in per cent) at 1085 µM (stock) in test [2] was 5.17%.
Turning to `CCCCCCc1ccc2nc(NCC(=O)O)cc(-c3ccc(F)cc3)c2c1` [2-([4-(4-fluorophenyl)-6-hexylquinolin-2-yl]amino}acetic acid], the fold induction at 10 µM in test [1] was 1.12.
Still for that read-out and setting: the same measure for `CN(CC(=O)O)c1cc(-c2ccccc2)c2cc(CCc3ccccc3)ccc2n1` [2-{methyl [4-phenyl-6-(2-phenylethyl)quinolin-2-yl]amino}acetic acid]: 1.48; for `CCc1ccc(-c2ccc3nc(N(C)CC(=O)O)cc(-c4ccccc4)c3c2)cc1` [2-{[6-(4-ethylphenyl)-4-phenylquinolin-2-yl](methyl)amino}acetic acid]: 1.06.
With `CN(CC(=O)O)c1cc(-c2ccccc2)c2cc(CCN3CCC(O)CC3)ccc2n1` [2-({6-[2-(4-hydroxypiperidin-1-yl)ethyl]-4-phenylquinolin-2-yl}(methyl)amino)acetic acid], in test [2], the inhibition at 1085 µM (stock) amounted to 14.3%.
On the same count and under the same terms, the same measure for `CN(CC(=O)O)c1cc(-c2ccccc2)c2cc(CCN3CCc4ccccc4C3)ccc2n1` [2-[methyl({4-phenyl-6-[2-(1,2,3,4-tetrahydroisoquinolin-2-yl)ethyl]quinolin-2-yl})amino]acetic acid]: 21.7%.
Consider `CN(CC(=O)O)c1cc(-c2ccccc2)c2cc(CCc3ccccn3)ccc2n1` [2-[methyl({4-phenyl-6-[2-(pyridin-2-yl)ethyl]quinolin-2-yl})amino]acetic acid], for which the fold induction at 10 µM in test [1] came out at 1.39.
Consider `CN(CC(=O)O)c1cc(-c2ccccc2)c2cc(CCN3CCc4ccccc43)ccc2n1` [2-({6-[2-(2,3-dihydro-1H-indol-1-yl)ethyl]-4-phenylquinolin-2-yl}(methyl)amino)acetic acid], for which the inhibition at 1085 µM (stock) in test [2] came to 76.3%.
`CCCCCCc1ccc2nc(N(C)CC(=O)O)cc(-c3c(C)noc3C)c2c1` [2-{[4-(3,5-dimethyl-1,2-oxazol-4-yl)-6-hexylquinolin-2-yl](methyl)amino}acetic acid] came in with a fold induction at 10 µM in test [1] of 1.22.
On the same count and under the same terms, next, `CCCCCCc1ccc2nc(N(C)c3nn[nH]n3)cc(-c3ccccc3)c2c1` [6-hexyl-N-methyl-4-phenyl-N-(2H-1,2,3,4-tetrazol-5-yl)quinolin-2-amine]: 1.11.
Take `CN(CC(=O)O)c1cc(-c2ccccc2)c2cc(CCc3nc4ccccc4n3C)ccc2n1` [2-[methyl({6-[2-(1-methyl-1H-1,3-benzodiazol-2-yl)ethyl]-4-phenylquinolin-2-yl})amino]acetic acid]: the inhibition at 1085 µM (stock) in test [2] amounted to 30.3%.
For `CCCC/C=C/c1ccc2nc(N(C)CC(=O)O)cc(-c3ccccc3)c2c1` [2-({6-[(1E)-hex-1-en-1-yl]-4-phenylquinolin-2-yl}(methyl)amino)acetic acid], in test [1], the fold induction at 10 µM was 1.32.
`CCCCCCc1ccc2nc(C(C)CC(=O)O)cc(-c3ccccc3)c2c1` (centres unmarked) [3-(6-hexyl-4-phenylquinolin-2-yl)butanoic acid] yielded a fold induction at 10 µM in test [1] of 1.3.
Take `O=C(O)C1CCN(c2cc(-c3ccccc3)c3cc(CCc4ccccc4)ccc3n2)C1` (centres unmarked) [1-[4-phenyl-6-(2-phenylethyl)quinolin-2-yl]pyrrolidine-3-carboxylic acid]: in test [1], the fold induction at 10 µM stood at 1.21.
On the same count and under the same terms, next, `CCCCCCc1ccc2nc(N(C)CC(=O)O)cc(-c3ccccc3C(=O)O)c2c1` [2-{2-[(carboxymethyl)(methyl)amino]-6-hexylquinolin-4-yl}benzoic acid]: 1.17; `CCCCCCc1ccc2nc(N3CC(C(=O)O)C3)cc(-c3ccccc3)c2c1` [1-(6-hexyl-4-phenylquinolin-2-yl)azetidine-3-carboxylic acid]: 1.27; `CCCCCCc1ccc2nc([C@@H]3C[C@H]3C(=O)O)cc(-c3ccccc3)c2c1` (relative stereo) [trans-2-(6-hexyl-4-phenylquinolin-2-yl)cyclopropane-1-carboxylic acid]: 1.14.
Same read-out and setting: next, `CCCCc1ccc2nc(N(C)CCC(=O)O)cc(-c3ccccc3)c2c1` [3-[(6-butyl-4-phenylquinolin-2-yl)(methyl)amino]propanoic acid]: 1.1; `CCCCCCCCCCc1ccc2nc(N(C)CC(=O)O)cc(-c3ccc(F)cc3)c2c1` [2-{[6-decyl-4-(4-fluorophenyl)quinolin-2-yl](methyl)amino}acetic acid]: 1.37.
On the same count and under the same terms, next, `CCCCCCc1ccc2nc(N3CCC(C(=O)O)C3)cc(-c3ccccc3)c2c1` (centres unmarked) [1-(6-hexyl-4-phenylquinolin-2-yl)pyrrolidine-3-carboxylic acid]: 1.24; `CN(CC(=O)O)c1cc(-c2ccccc2)c2cc(/C=C/c3ccccc3)ccc2n1` [2-[methyl({4-phenyl-6-[(1E)-2-phenylethenyl]quinolin-2-yl})amino]acetic acid]: 1.21; `CCCCCCCc1ccc2nc(N(C)CC(=O)O)cc(-c3ccccc3)c2c1` [2-[(6-heptyl-4-phenylquinolin-2-yl)(methyl)amino]acetic acid]: 1.4.
Compound `CCCCCCc1ccc2nc(CC3SC(=O)NC3=O)cc(-c3ccccc3)c2c1` (centres unmarked) [5-[(6-hexyl-4-phenylquinolin-2-yl)methyl]-1,3-thi azolidine-2,4-dione] registered a fold induction at 10 µM in test [1] of 1.33.
For `CN(CC(=O)O)c1cc(-c2ccccc2)c2cc(CCN3CCCC3)ccc2n1` [2-[methyl({4-phenyl-6-[2-(pyrrolidin-1-yl)ethyl]quinolin-2-yl})amino]acetic acid], the inhibition at 1085 µM (stock) in test [2] was determined as 2.04%.
The compound `CCCCCCc1ccc2nc([C@H]3C[C@H]3C(=O)O)cc(-c3ccccc3)c2c1` (relative stereo) [cis-2-(6-hexyl-4-phenylquinolin-2-yl)cyclopropane-1-carboxylic acid] yielded a fold induction at 10 µM in test [1] of 1.36.
In test [1], `CCCCCCc1ccc2nc(OC(C)C(=O)O)cc(-c3ccccc3)c2c1` (centres unmarked) [2-[(6-hexyl-4-phenylquinolin-2-yl)oxy]propanoic acid] displayed a fold induction at 10 µM of 1.25.
As for `CCCCCCc1ccc2nc(N(C)CC(=O)O)cc(-c3ccccc3F)c2c1` [2-{[4-(2-fluorophenyl)-6-hexylquinolin-2-yl](methyl)amino}acetic acid], in test [1], the fold induction at 10 µM was 1.26.
Consider `CCCCCCc1ccc2nc(N(C)CC(=O)NCCO)cc(-c3ccccc3)c2c1` [2-[(6-hexyl-4-phenylquinolin-2-yl)(methyl)amino]-N-(2-hydroxyethyl)acetamide], for which the fold induction at 10 µM in test [1] came out at 1.11.
Same read-out and setting: the same measure for `CCCCc1ccc2nc(N(C)CC(=O)O)cc(-c3ccccc3)c2c1` [2-[(6-butyl-4-phenylquinolin-2-yl)(methyl)amino]acetic acid]: 1.37.
Still for that read-out and setting: the same measure for `CCCCCCc1ccc2nc(/C=C3/SC(=O)NC3=O)cc(-c3ccccc3)c2c1` [5-[(6-hexyl-4-phenylquinolin-2-yl)methylidene]-1,3-thiazolidine-2,4-dione]: 1.29.
